These results are taken from ChEMBL document CHEMBL5512618, “MYC the oncogene from hell: Novel opportunities for cancer therapy” (Eur J Med Chem, 2024).

A short description of data set [1]: Lipophilicity, logP of compound. The format is physicochemical. The settings on record: octanol/water.
The next data set has as its system HL-60. In words: Inhibition of cell development in human HL-60 cells. The format is functional, cell-based.
Data set [2] deals with Myc proto-oncogene protein (Homo sapiens, UniProt P01106). In words: Binding affinity to CM5 sensor chip immobilized MYC bHLHZip domain (unknown origin) assessed as dissociation constant by SPR analysis.
The next data set relates to Burkitts lymphoma cell. In words: Inhibition of cell growth in human Burkitts lymphoma cells. The format is functional, cell-based.
In the next data set the target is c-Myc/Max (Homo sapiens, UniProt P01106+P61244). In words: Inhibition of His6-tagged Max (151 residues)(unknown origin) expressed in bacterial system/recombinant MYC ) (unknown origin) expressed in bacterial system by EMSA. Background: A gel shift assay detects complexes by their altered migration in electrophoresis.

As a reminder, the logP is the decadic logarithm of the partition coefficient of the neutral form, usually between octanol and water. Low values mean a more hydrophilic compound, high ones a more lipophilic compound. `Cn1nc(C(F)(F)F)cc1-c1ccc(OCc2ccc(Cl)cc2)c(-c2ccc(Cl)c(C(F)(F)F)c2)c1O`: the logP in data set [1] was determined as 8.4.
The IC50 is the concentration at which inhibition is half-maximal. As to `O=C(O)c1ccc(Nc2ccc([N+](=O)[O-])c3nonc23)cc1`, the IC50 in the data set with HL-60 was determined as 30 µM.
`O=[N+]([O-])c1ccc(Nc2ccccc2-c2ccccc2)c2nonc12` had an IC50 in the data set with HL-60 of 7.2 µM.
What is called Kd is the constant that tells how readily two partners part at equilibrium. With `COc1ccc2nc3cc(/N=N/c4ccc(N)nc4N)ccc3c(N)c2c1`, in data set [2], the Kd is 1600 nM. The IC50 with Burkitts lymphoma cell is 500 nM.
With `COC(=O)c1ccc(Nc2ccc([N+](=O)[O-])c3nonc23)c(-c2ccc(C)cc2)c1`, the half-maximal inhibitory concentration (IC50) at c-Myc/Max came to 34 µM.
